Assay results from patent US7855228B2, “Antibiotics targeting MreB” (The Board of Trustees of the Leland Stamford Junior …, priority 2005, dated 2010).

Experiments:
Format in all cases: cell-based, Caulobacter crescentus
Caulobacter = Caulobacter morphology (DIC images)
From the text: Consistent with previous observations in E. coli (Iwai et al., 2002), A22 caused a dose-dependent alteration of Caulobacter morphology, transforming normal, crescent-shaped cells into rounded, lemon-shaped cells. The progression of cell shape deformation by A22 treatment was qualitatively similar to that caused by mreB depletion, though the A22 effect was more rapid (FIGS. […]). […] For example, A22 could disrupt the localization of new cell wall synthesis but have no effect on the existing cell wall, such that without additional growth and wall synthesis A22's effects cannot be perceived. A dependence on cell growth could also explain why A22's effect on morphology takes several hours to manifest.
(§1) Microscopy and Timelapse Imaging. All experiments other than the A22 flow-cell analysis were performed by mounting the samples on 1% agarose pads as described, with the appropriate concentration of A22 added to the agarose. The rates of origin-distal locus segregation were determined by inducing PxyI:lacI:cfp expression with 0.03% xylose for 75 min, isolating swarmer cells, and growing the swarmer cells in M2G liquid medium for 50 min. After 50 min, 10 μg/ml of A22 was added to these liquid cultures, they were mounted onto 1% M2G agarose pads containing 10 μg/ml A22, and a phase and CFP fluorescence image was captured every 2 min for 60 min. The images were analyzed by previously described software to determine the average position and rate of movement of the observed foci.

GFP-MreB [1] = target: T1, GFP-MreB (Caulobacter vibrioides, UniProt A0A0H3C7V4); assay: GFP-MreB localization
T1 construct: expressed in transfected cells; host or cells: Caulobacter crescentus CB15N derivative, xylose-inducible Pxyl:gfp-mreB
T1 sequence (A0A0H3C7V4 whole entry): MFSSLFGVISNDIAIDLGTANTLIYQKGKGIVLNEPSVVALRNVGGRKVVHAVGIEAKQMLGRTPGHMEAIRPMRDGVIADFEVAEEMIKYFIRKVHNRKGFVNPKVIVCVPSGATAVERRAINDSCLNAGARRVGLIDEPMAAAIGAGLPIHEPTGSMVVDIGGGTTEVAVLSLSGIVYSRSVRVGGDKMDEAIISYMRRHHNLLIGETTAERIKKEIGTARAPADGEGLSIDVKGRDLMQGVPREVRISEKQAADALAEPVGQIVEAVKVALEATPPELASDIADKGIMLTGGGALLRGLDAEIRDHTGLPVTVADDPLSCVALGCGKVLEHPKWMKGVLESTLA
Experimental: (§2) A22 Rapidly and Reversibly Delocalizes GFP-MreB. During the Caulobacter cell cycle, MreB forms a lengthwise spiral in swarmer cells and stalked cells. It then appears to condense into an increasingly tight ring positioned at the future site of cell division. When cytokinesis initiates, this ring is replaced by a lengthwise spiral, such that upon cell division each daughter cell inherits a fully expanded spiral. […] Since 10 μg/ml of A22 strongly delocalizes GFP-MreB and blocks cell division without completely inhibiting cell growth, we have chosen to focus most of our subsequent A22 studies on this concentration.
(§3) The onset of A22's effect on GFP-MreB is very rapid: within 1 min the GFP-MreB already delocalized (FIG. 4B). A22's effect on GFP-MreB is also rapidly reversible. Diluting the A22 concentration of cells treated with A22 for 1 hr by mounting them on pads lacking A22 leads to a full recovery of MreB localization within 1 min (FIG. 4C). GFP-MreB was monitored in the same cells before, during, and after A22 treatment by timelapse imaging cells in a flow chamber that allows A22 to be washed in and out (FIGS. 4D-4F). […] Cells generally retained a memory of the MreB structure present before A22 treatment (FIGS. […]). Cells with rings recovered rings, cells with spirals recovered spirals, and cells with partially compacted rings recovered partially compacted rings. These findings are consistent with MreB's localization being determined by extrinsic factors regulated by the cell cycle state, rather than an intrinsic MreB localization cycle.
(§4) We constructed a fusion of the most common A22-resistant mreB missense mutation (T158A) to GFP and asked if the cellular organization of this MreB mutant is maintained in 10 μg/ml of A22. This fusion was expressed in the corresponding A22-resistant strain, producing merodiploid cells containing both GFP-tagged and -untagged mutated mreB, but no wild-type mreB. […] Since this mutation in the MreB ATP binding pocket perturbs MreB dynamic localization, nucleotide hydrolysis may play a role in regulating MreB dynamics.
as §1
(§5) The A22 flow-cell treatment timelapse images were performed on PxyI:gfp-mreB cells induced for 2 hr with 0.03% xylose. These cells were adhered to polylysine-coated cover slips. The cover slips were then adhered to microscope slides with two parallel strips of double-sided tape (3M), leaving a central channel. An excess of medium containing 0 or 10 μg/ml A22 was pipetted onto one opening of this channel and wicked through by placing a tissue (VWR) on the other end. Images were collected every 30 s.

GFP-MreB [2] = target: T2, GFP-MreB (Caulobacter vibrioides, UniProt A0A0H3C7V4, T167A); assay: GFP-MreB localization; conditions: 10 μg/ml; A22-resistant strain
T2 construct: expressed in transfected cells; host or cells: Caulobacter crescentus CB15N derivative, xylose-inducible Pxyl:gfp-mreB
T2 sequence (A0A0H3C7V4 whole entry T167A): as the sequence (A0A0H3C7V4 whole entry) above, with T167A counted along it
Experimental: as §2, §3, §4, §1, §5

Compound: N=C(N)SCc1ccc(Cl)c(Cl)c1 [Compound 1, S-(3,4-dichlorobenzyl)isothiourea]
- Caulobacter growth and cell shape (Caulobacter; 100 μg/ml): completely blocked growth but did not cause Caulobacter to round up
- Caulobacter growth and cell shape (Caulobacter; 0.1, 1, and 10 μg/ml): both slowed cell growth and altered cell shape
- GFP-MreB localization (puncta and bands) (GFP-MreB [1]; 1 μg/ml or less): largely maintained
- Onset of GFP-MreB delocalization (GFP-MreB [1]; 10 μg/ml): ≤ 1 min
- GFP-MreB localization (GFP-MreB [1]; 10 or 100 μg/ml): completely disrupted this GFP-MreB localization
- Full recovery of MreB localization after diluting A22 (GFP-MreB [1]; cells treated 1 hr, mounted on pads lacking A22): ≤ 1 min
- Localization of mutated (T158A) GFP-MreB (GFP-MreB [2]): completely unaffected
